The record followed here is ChEMBL document CHEMBL3046822, “Synthesis, antiplatelet aggregation activity, and molecular modeling study of novel substituted-piperazine analogues” (2011).

Activity calls are given as the source filed them. No cut-off for these calls is given here.

The test system of test [1] is Platelet. Kind of test: Antiaggregating activity in Homo sapiens (human) platelet rich plasma assessed as inhibition of ADP-induced platelet aggregation at 5 uM incubated for 4 min prior to ADP-induction measured for 5.5 min by turbidometric analysis. In kind it is functional, cell-free.
The subject of test [2] is Platelet. Nature of the test: Antiaggregating activity in Homo sapiens (human) platelet rich plasma assessed as inhibition of collagen-induced platelet aggregation at 1 uM incubated for 4 min prior to collagen-induction measured for 5.5 min by turbidometric analysis. The class given is functional, cell-free.
Test [3] in a line: Antiaggregating activity in Homo sapiens (human) platelet rich plasma assessed as ADP-induced platelet aggregation at 0.1 uM incubated for 4 min prior to ADP-induction measured for 5.5 min by turbidometric analysis (reference value: 54 to 88%). The class given is functional.
In test [4] the test system is Platelet. Kind of test: Antiaggregating activity in Homo sapiens (human) platelet rich plasma assessed as inhibition of collagen-induced platelet aggregation at 0.25 uM incubated for 4 min prior to collagen-induction measured for 5.5 min by turbidometric analysis. In kind it is functional.
The test system of test [5] is Platelet. Nature of the test: Antiaggregating activity in Homo sapiens (human) platelet rich plasma assessed as inhibition of collagen-induced platelet aggregation at 0.5 uM incubated for 4 min prior to collagen-induction measured for 5.5 min by turbidometric analysis. The class given is functional, cell-free.
The test system of test [6] is Platelet. Nature of the test: Antiaggregating activity in Homo sapiens (human) platelet rich plasma assessed as inhibition of ADP-induced platelet aggregation at 0.25 uM incubated for 4 min prior to ADP-induction measured for 5.5 min by turbidometric analysis. The class given is functional, cell-free.
Test [7] relates to Platelet. Nature of the test: Antiaggregating activity in Homo sapiens (human) platelet rich plasma assessed as inhibition of ADP-induced platelet aggregation at 1 uM incubated for 4 min prior to ADP-induction measured for 5.5 min by turbidometric analysis. The class given is functional, cell-free.
Test [8] relates to Platelet. Kind of test: Antiaggregating activity in Homo sapiens (human) platelet rich plasma assessed as inhibition of adrenaline-induced platelet aggregation at 0.1 uM incubated for 4 min prior to adrenaline-induction measured for 5.5 min by turbidometric analysis. The class given is functional, cell-free.
A short description of test [9]: Antiaggregating activity in Homo sapiens (human) platelet rich plasma assessed as collagen-induced platelet aggregation at 0.1 uM incubated for 4 min prior to collagen-induction measured for 5.5 min by turbidometric analysis (reference value: 50 to 98%). In kind it is functional.
Test [10] can be described thus: Antiaggregating activity in Homo sapiens (human) platelet rich plasma assessed as ristocetin-induced platelet aggregation at 0.25 uM incubated for 4 min prior to ristocetin-induction measured for 5.5 min by turbidometric analysis (reference value: 65 to 99%). The class given is functional.
In test [11] the test system is Platelet. Kind of test: Antiaggregating activity in Homo sapiens (human) platelet rich plasma assessed as inhibition of arachidonic acid-induced platelet aggregation at 1 uM incubated for 4 min prior to arachidonic acid-induction measured for 5.5 min by turbidometric analysis. In kind it is functional, cell-free.
In test [12] the test system is Platelet. Nature of the test: Antiaggregating activity in Homo sapiens (human) platelet rich plasma assessed as inhibition of adrenaline-induced platelet aggregation at 0.25 uM incubated for 4 min prior to adrenaline-induction measured for 5.5 min by turbidometric analysis. The class given is functional, cell-free.
For test [13], the system named is Platelet. Nature of the test: Antiaggregating activity in Homo sapiens (human) platelet rich plasma assessed as inhibition of adrenaline-induced platelet aggregation at 0.5 uM incubated for 4 min prior to adrenaline-induction measured for 5.5 min by turbidometric analysis. The class given is functional, cell-free.
Test [14] deals with Platelet. Nature of the test: Antiaggregating activity in Homo sapiens (human) platelet rich plasma assessed as inhibition of adrenaline-induced platelet aggregation at 5 uM incubated for 4 min prior to adrenaline-induction measured for 5.5 min by turbidometric analysis. The class given is functional, cell-free.
Test [15] in a line: Antiaggregating activity in Homo sapiens (human) platelet rich plasma assessed as arachidonic acid-induced platelet aggregation at 0.1 uM incubated for 4 min prior to arachidonic acid-induction measured for 5.5 min by turbidometric analysis (reference value: 55 to 100%). The class given is functional.
The nature of test [16]: Antiaggregating activity in Homo sapiens (human) platelet rich plasma assessed as ristocetin-induced platelet aggregation at 0.5 uM incubated for 4 min prior to ristocetin-induction measured for 5.5 min by turbidometric analysis (reference value: 65 to 99%). In kind it is functional.
Test [17] concerns Platelet. Nature of the test: Antiaggregating activity in Homo sapiens (human) platelet rich plasma assessed as inhibition of ristocetin-induced platelet aggregation at 5 uM incubated for 4 min prior to ristocetin-induction measured for 5.5 min by turbidometric analysis. The class given is functional, cell-free.
Test [18] in a line: Antiaggregating activity in Homo sapiens (human) platelet rich plasma assessed as ristocetin-induced platelet aggregation at 1 uM incubated for 4 min prior to ristocetin-induction measured for 5.5 min by turbidometric analysis (reference value: 65 to 99%). In kind it is functional.
Test [19] has as its system Platelet. Kind of test: Antiaggregating activity in Homo sapiens (human) platelet rich plasma assessed as inhibition of arachidonic acid-induced platelet aggregation at 5 uM incubated for 4 min prior to arachidonic acid-induction measured for 5.5 min by turbidometric analysis. The class given is functional, cell-free.
A short description of test [20]: Antiaggregating activity in Homo sapiens (human) platelet rich plasma assessed as ristocetin-induced platelet aggregation at 0.1 uM incubated for 4 min prior to ristocetin-induction measured for 5.5 min by turbidometric analysis (reference value: 65 to 99%). In kind it is functional.
Test [21] relates to Platelet. Kind of test: Antiaggregating activity in Homo sapiens (human) platelet rich plasma assessed as inhibition of ADP-induced platelet aggregation at 0.5 uM incubated for 4 min prior to ADP-induction measured for 5.5 min by turbidometric analysis. In kind it is functional, cell-free.
Test [22] has as its system Platelet. Kind of test: Antiaggregating activity in Homo sapiens (human) platelet rich plasma assessed as inhibition of arachidonic acid-induced platelet aggregation at 0.5 uM incubated for 4 min prior to arachidonic acid-induction measured for 5.5 min by turbidometric analysis. The class given is functional.
Test [23] relates to Platelet. Kind of test: Antiaggregating activity in Homo sapiens (human) platelet rich plasma assessed as inhibition of collagen-induced platelet aggregation at 5 uM incubated for 4 min prior to collagen-induction measured for 5.5 min by turbidometric analysis. The class given is functional, cell-free.
Test [24] deals with Platelet. Nature of the test: Antiaggregating activity in Homo sapiens (human) platelet rich plasma assessed as inhibition of arachidonic acid-induced platelet aggregation at 0.25 uM incubated for 4 min prior to arachidonic acid-induction measured for 5.5 min by turbidometric analysis. In kind it is functional, cell-free.
Test [25] concerns Platelet. Nature of the test: Antiaggregating activity in Homo sapiens (human) platelet rich plasma assessed as inhibition of adrenaline-induced platelet aggregation at 1 uM incubated for 4 min prior to adrenaline-induction measured for 5.5 min by turbidometric analysis. The class given is functional, cell-free.
Test [26] deals with Platelet. Kind of test: Antiaggregating activity in Homo sapiens (human) platelet rich plasma assessed as inhibition of arachidonic acid-induced platelet aggregation at 2.5 uM incubated for 4 min prior to arachidonic acid-induction measured for 5.5 min by turbidometric analysis. The class given is functional, cell-free.
Test [27] deals with Platelet. Nature of the test: Antiaggregating activity in Homo sapiens (human) platelet rich plasma assessed as inhibition of ADP-induced platelet aggregation at 2.5 uM incubated for 4 min prior to ADP-induction measured for 5.5 min by turbidometric analysis. The class given is functional, cell-free.
Test [28] concerns Platelet. Nature of the test: Antiaggregating activity in Homo sapiens (human) platelet rich plasma assessed as inhibition of collagen-induced platelet aggregation at 2.5 uM incubated for 4 min prior to collagen-induction measured for 5.5 min by turbidometric analysis. In kind it is functional, cell-free.
In test [29] the test system is Platelet. Kind of test: Antiaggregating activity in Homo sapiens (human) platelet rich plasma assessed as inhibition of adrenaline-induced platelet aggregation at 2.5 uM incubated for 4 min prior to adrenaline-induction measured for 5.5 min by turbidometric analysis. In kind it is functional, cell-free.
Test [30] has as its system Platelet. Kind of test: Antiaggregating activity in Homo sapiens (human) platelet rich plasma assessed as collagen-induced platelet aggregation at 0.25 uM incubated for 4 min prior to collagen-induction measured for 5.5 min by turbidometric analysis (reference value: 50 to 98%). In kind it is functional.
Test [31] in a line: Antiaggregating activity in Homo sapiens (human) platelet rich plasma assessed as collagen-induced platelet aggregation at 0.5 uM incubated for 4 min prior to collagen-induction measured for 5.5 min by turbidometric analysis (reference value: 50 to 98%). In kind it is functional.
The nature of test [32]: Antiaggregating activity in Homo sapiens (human) platelet rich plasma assessed as arachidonic acid-induced platelet aggregation at 0.5 uM incubated for 4 min prior to arachidonic acid-induction measured for 5.5 min by turbidometric analysis (reference value: 55 to 100%). The class given is functional.
Test [33] concerns Platelet. Kind of test: Antiaggregating activity in Homo sapiens (human) platelet rich plasma assessed as inhibition of adrenaline-induced platelet aggregation at 2 uM incubated for 4 min prior to adrenaline-induction measured for 5.5 min by turbidometric analysis. In kind it is functional, cell-free.
Test [34] in a line: Antiaggregating activity in Homo sapiens (human) platelet rich plasma assessed as ADP-induced platelet aggregation at 0.5 uM incubated for 4 min prior to ADP-induction measured for 5.5 min by turbidometric analysis (reference value: 54 to 88%). In kind it is functional.
Test [35] relates to Platelet. Kind of test: Antiaggregating activity in Homo sapiens (human) platelet rich plasma assessed as inhibition of collagen-induced platelet aggregation at 2 uM incubated for 4 min prior to collagen-induction measured for 5.5 min by turbidometric analysis. The class given is functional, cell-free.
The nature of test [36]: Antiaggregating activity in Homo sapiens (human) platelet rich plasma assessed as arachidonic acid-induced platelet aggregation at 1 uM incubated for 4 min prior to arachidonic acid-induction measured for 5.5 min by turbidometric analysis (reference value: 55 to 100%). The class given is functional.
The nature of test [37]: Antiaggregating activity in Homo sapiens (human) platelet rich plasma assessed as disaggregation of ADP-induced platelet aggregation at 1 uM incubated for 4 min prior to ADP-induction measured for 5.5 min by turbidometric analysis relative to control. The class given is functional.
Test [38] can be described thus: Antiaggregating activity in Homo sapiens (human) platelet rich plasma assessed as ristocetin-induced platelet aggregation at 2 uM incubated for 4 min prior to ristocetin-induction measured for 5.5 min by turbidometric analysis (reference value: 65 to 99%). In kind it is functional.
The subject of test [39] is Platelet. Kind of test: Antiaggregating activity in Homo sapiens (human) platelet rich plasma assessed as inhibition of ADP-induced platelet aggregation at 2 uM incubated for 4 min prior to ADP-induction measured for 5.5 min by turbidometric analysis. The class given is functional, cell-free.
For test [40], the system named is Platelet. Nature of the test: Antiaggregating activity in Homo sapiens (human) platelet rich plasma assessed as inhibition of arachidonic acid-induced platelet aggregation at 2 uM incubated for 4 min prior to arachidonic acid-induction measured for 5.5 min by turbidometric analysis. The class given is functional, cell-free.
The nature of test [41]: Antiaggregating activity in Homo sapiens (human) platelet rich plasma assessed as disaggregation of ADP-induced platelet aggregation at 0.25 uM incubated for 4 min prior to ADP-induction measured for 5.5 min by turbidometric analysis relative to control. In kind it is functional.

Take `Cl.O=C(C1CCCN(Cc2ccccc2)C1)N1CCN(c2ccccc2Cl)CC1` (stereo not given): the inhibition entry in test [1], in test [2], in test [4], in test [5], in test [6] and in test [7] was “Active” in each case. Moreover, the inhibition entry in [8], in test [11], in test [12], in [13], in test [14] and in test [17] was “Active” each time. The inhibition result in [19], in test [21], in test [22], in test [23], in [24] and in test [25] was “Active” in each case. Besides, the Activity is 86% in test [3]; 100% in test [9]; 30% in test [10]; 23% in test [15]; 26% in test [16]; 22% in [18]. Also, in test [20], the Activity is reported as 90%.
Regarding `Cl.Cl.O=C(C1CCCN(Cc2ccccc2F)C1)N1CCN(C(=O)C2CCCN(Cc3ccccc3F)C2)CC1` (stereo not given), the inhibition result in test [26], in [27], in [2], in test [7], in test [28] and in [11] was “Active” each time. Further, the inhibition result in [29], in [30] and in test [25] was “Active” in each case. For the same molecule, in test [18], the Activity is recorded as 64%.
Take `O=C(c1ccc[n+](Cc2ccccc2F)c1)N1CCN(c2ccccc2Cl)CC1.[Cl-]`: the Activity was found to be 90% in [31]; 71% in test [32]; 71% in [34]; 80% in [36]; 55% in test [37]; 66% in test [38]. In addition, the figures for the Activity in test [16] and in test [18] were 89% and 85%, respectively. Further, the inhibition result in test [33], in test [1], in test [2], in [35], in [13] and in [14] was “Active” in each case. The inhibition entry in test [17], in test [19], in [39], in test [40], in test [23] and in test [25] was “Active” throughout.
In the case of `Cl.Cl.O=C(C1CCCN(Cc2ccccc2)C1)N1CCN(C(=O)C2CCCN(Cc3ccccc3)C2)CC1` (stereo not given), the inhibition result in test [33], in test [35], in [39] and in test [40] was “Active” each time. In addition, in [38], the Activity is 9%.
As for `Cl.Cl.O=C(C1CCCN(Cc2ccc(CN3CCCC(C(=O)N4CCN(c5ncccn5)CC4)C3)cc2)C1)N1CCN(c2ncccn2)CC1` (stereo not given), the results for the Activity in test [31], in test [16] and in [18] were 23%, 92% and 58%, respectively. Also, the inhibition entry in [2], in test [7], in test [11], in test [13], in test [21] and in [22] was “Active” throughout. The inhibition result in test [25] is “Active”.
`Cl.O=C(c1ccc(Br)cc1)N1CCCC(C(=O)N2CCN(c3ccccc3Cl)CC2)C1` (stereo not given): the inhibition result in test [26], in test [27], in [4], in test [5], in [28] and in [12] was “Active” each time. In addition, the inhibition result in [13], in test [29], in test [21], in [30], in test [22] and in test [24] was “Active” in each case. For the same molecule, the results for the Activity in test [10], in [41] and in [16] were 81%, 47% and 75%, respectively.
